Measurements taken from patent US5910479A, “Method for the treatment of Streptococcus pneumoniae infection” (priority 1996, dated 1999).
≈ marks a conversion by molar mass, not a printed value.

How the values were obtained:
[1] = tested on: Streptococcus pneumoniae Felton; experiment: Mouse i.p. infection model (septicemia), survival; format: in vivo; details: mice; for Survivors (%) / Survivors/total: twice
Method: Mouse i.p. infection model. Staphylococcus aureus Smith was grown in veal infusion broth and each mouse was infected intraperitoneally with 10^6 colony-forming units (CFU), diluted in broth containing 5% (w/v) Difco bacteriological mucin. Streptococcus pneumoniae Felton strain was grown in Difco Brain Heart Infusion broth (BHI) and each mouse was infected intraperitoneally with 10^3 CFU, diluted in BHI. Mice were divided into groups of 5. […] Other groups of mice received different dosages of nisin. Nisin was administered either intravenously (via the tail vein in. 0.1 ml of 5% dextrose for injection) or subcutaneously (in 0.2 ml). Two injections were given to each mouse, the first within 10 minutes after infection and the second after 5 hours. […] Different dosages of vancomycin or penicillin were administered i.v. in 0.1 ml of 5% glucose for injection.

[2] = tested on: S. pneumoniae; details: strain of S. pneumoniae used; reported by Goldstein et al.; cited from earlier work

CN[C@H](CC(C)C)C(=O)N[C@H]1C(=O)N[C@@H](CC(N)=O)C(=O)N[C@H]2C(=O)N[C@H]3C(=O)N[C@H](C(=O)N[C@H](C(=O)O)c4cc(O)cc(O)c4-c4cc3ccc4O)[C@H](O)c3ccc(c(Cl)c3)Oc3cc2cc(c3O[C@@H]2O[C@H](CO)[C@@H](O)[C@H](O)[C@H]2O[C@H]2C[C@](C)(N)[C@H](O)[C@H](C)O2)Oc2ccc(cc2Cl)[C@H]1O [vancomycin]
Efficacy compared with the other agents (in words) ([1]; i.v.): less efficacious than nisin | Survivors (%) ([1]; i.v., 1 mg/kg/dose): 40% | Survivors/total ([1]; i.v., 1 mg/kg/dose): 2/5 | Survivors (%) ([1]; i.v., 2 mg/kg/dose): 60% | Survivors/total ([1]; i.v., 2 mg/kg/dose): 3/5 | Survivors (%) ([1]; i.v., 4 mg/kg/dose): 80% | Survivors/total ([1]; i.v., 4 mg/kg/dose): 4/5 | Survivors (%) ([1]; i.v., 8 mg/kg/dose): 100% | Survivors/total ([1]; i.v., 8 mg/kg/dose): 5/5 | Survivors (%) ([1]; i.v., 16 mg/kg/dose): 100% | Survivors/total ([1]; i.v., 16 mg/kg/dose): 5/5 | Survivors (%) ([1]; i.v., 32 mg/kg/dose): 100% | Survivors/total ([1]; i.v., 32 mg/kg/dose): 5/5 | Survivors (%) ([1]; s.c., 2 mg/kg/dose): 60% | Survivors/total ([1]; s.c., 2 mg/kg/dose): 3/5 | Survivors (%) ([1]; s.c., 4 mg/kg/dose): 60% | Survivors/total ([1]; s.c., 4 mg/kg/dose): 3/5

CC1(C)S[C@@H]2[C@H](NC(=O)Cc3ccccc3)C(=O)N2[C@H]1C(=O)O [penicillin]
MIC [2]: 0.016 µg/mL (≈ 0.0478 µM) | Efficacy compared with the other agents (in words) ([1]; i.v.): less efficacious than nisin | Survivors (%) ([1]; i.v., 0.5 mg/kg/dose): 0% | Survivors/total ([1]; i.v., 0.5 mg/kg/dose): 0/5 | Survivors (%) ([1]; i.v., 1 mg/kg/dose): 20% | Survivors/total ([1]; i.v., 1 mg/kg/dose): 1/5 | Survivors (%) ([1]; i.v., 2 mg/kg/dose): 20% | Survivors/total ([1]; i.v., 2 mg/kg/dose): 1/5 | Survivors (%) ([1]; i.v., 4 mg/kg/dose): 60% | Survivors/total ([1]; i.v., 4 mg/kg/dose): 3/5 | Survivors (%) ([1]; i.v., 8 mg/kg/dose): 20% | Survivors/total ([1]; i.v., 8 mg/kg/dose): 1/5 | Survivors (%) ([1]; i.v., 16 mg/kg/dose): 80% | Survivors/total ([1]; i.v., 16 mg/kg/dose): 4/5
